Read-outs that look alike come from different tables or passages of the source.
Assays:
[1] = PAMPA-BBB permeation assay; conditions: for Prediction (PAMPA-BBB) (CNS+, CNS−): class from Pe; for Papp at 20 h: PAMPA, pH 7.4
eqBChE = eqBChE (Equus caballus, UniProt P81908); experiment: BChE inhibition, modified Ellman's method; assay type: biochemical, Equine
hMAO-A = target: T1, hMAO-A (Homo sapiens, UniProt P21397); experiment: MAO-A inhibition, fluorometric method; assay type: biochemical
T1 sequence (P21397 1-527): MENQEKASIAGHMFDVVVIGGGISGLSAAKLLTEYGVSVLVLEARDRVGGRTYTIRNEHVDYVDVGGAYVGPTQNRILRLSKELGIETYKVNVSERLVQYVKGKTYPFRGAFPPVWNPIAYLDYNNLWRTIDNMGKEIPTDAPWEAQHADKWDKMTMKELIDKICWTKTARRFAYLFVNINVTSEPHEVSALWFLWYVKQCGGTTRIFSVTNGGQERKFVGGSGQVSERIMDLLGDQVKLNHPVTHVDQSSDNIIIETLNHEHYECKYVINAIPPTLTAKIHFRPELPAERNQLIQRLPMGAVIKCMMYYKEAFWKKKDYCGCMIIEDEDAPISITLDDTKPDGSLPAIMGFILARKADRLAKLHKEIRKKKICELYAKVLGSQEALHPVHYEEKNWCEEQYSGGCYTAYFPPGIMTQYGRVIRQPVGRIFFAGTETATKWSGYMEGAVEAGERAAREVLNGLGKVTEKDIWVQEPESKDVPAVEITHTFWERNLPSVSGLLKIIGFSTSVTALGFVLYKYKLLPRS

hMAO-B = target: T2, hMAO-B (Homo sapiens, UniProt P27338); experiment: MAO-B inhibition, fluorometric method; assay type: biochemical; conditions: for SI (IC50 hMAO-A/IC50 hMAO-B): selectivity index toward hMAO-B
T2 sequence (P27338 1-520): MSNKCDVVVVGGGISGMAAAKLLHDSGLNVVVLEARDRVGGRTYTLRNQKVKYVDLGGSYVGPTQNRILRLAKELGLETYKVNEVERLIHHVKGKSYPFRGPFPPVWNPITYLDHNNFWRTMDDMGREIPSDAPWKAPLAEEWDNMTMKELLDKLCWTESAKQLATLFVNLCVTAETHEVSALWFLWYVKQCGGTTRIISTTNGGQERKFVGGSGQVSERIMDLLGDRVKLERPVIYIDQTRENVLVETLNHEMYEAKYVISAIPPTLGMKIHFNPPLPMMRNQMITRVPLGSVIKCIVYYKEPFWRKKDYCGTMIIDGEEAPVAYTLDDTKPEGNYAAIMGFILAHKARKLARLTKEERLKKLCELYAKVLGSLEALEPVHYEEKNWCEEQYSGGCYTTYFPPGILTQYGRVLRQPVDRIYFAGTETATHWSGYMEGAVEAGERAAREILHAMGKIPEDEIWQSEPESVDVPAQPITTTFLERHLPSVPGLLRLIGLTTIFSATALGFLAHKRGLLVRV

COX-2 = target: T3, COX-2 (Homo sapiens, UniProt P35354); experiment: biochemical; assay type: biochemical
T3 sequence (P35354 18-604): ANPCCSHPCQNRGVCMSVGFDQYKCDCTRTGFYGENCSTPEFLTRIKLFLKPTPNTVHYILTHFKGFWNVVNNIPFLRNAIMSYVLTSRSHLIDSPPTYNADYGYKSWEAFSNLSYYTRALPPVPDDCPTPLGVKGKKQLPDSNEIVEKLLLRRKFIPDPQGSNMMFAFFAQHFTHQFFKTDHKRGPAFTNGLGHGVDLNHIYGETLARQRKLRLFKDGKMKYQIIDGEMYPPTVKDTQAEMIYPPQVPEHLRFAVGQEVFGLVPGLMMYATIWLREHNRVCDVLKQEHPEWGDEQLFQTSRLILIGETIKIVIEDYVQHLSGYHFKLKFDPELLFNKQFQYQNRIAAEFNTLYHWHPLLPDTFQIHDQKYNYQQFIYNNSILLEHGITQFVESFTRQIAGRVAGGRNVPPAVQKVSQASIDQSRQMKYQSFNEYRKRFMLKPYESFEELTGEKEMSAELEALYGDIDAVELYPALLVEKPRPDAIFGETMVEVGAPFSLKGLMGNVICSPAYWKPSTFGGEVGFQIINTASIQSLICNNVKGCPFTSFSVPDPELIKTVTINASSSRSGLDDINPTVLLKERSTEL

5-LOX = target: T4, 5-LOX (Glycine max, UniProt P08170); experiment: 5-LOX inhibition assay; assay type: biochemical, soybean
T4 sequence (P08170 1-839): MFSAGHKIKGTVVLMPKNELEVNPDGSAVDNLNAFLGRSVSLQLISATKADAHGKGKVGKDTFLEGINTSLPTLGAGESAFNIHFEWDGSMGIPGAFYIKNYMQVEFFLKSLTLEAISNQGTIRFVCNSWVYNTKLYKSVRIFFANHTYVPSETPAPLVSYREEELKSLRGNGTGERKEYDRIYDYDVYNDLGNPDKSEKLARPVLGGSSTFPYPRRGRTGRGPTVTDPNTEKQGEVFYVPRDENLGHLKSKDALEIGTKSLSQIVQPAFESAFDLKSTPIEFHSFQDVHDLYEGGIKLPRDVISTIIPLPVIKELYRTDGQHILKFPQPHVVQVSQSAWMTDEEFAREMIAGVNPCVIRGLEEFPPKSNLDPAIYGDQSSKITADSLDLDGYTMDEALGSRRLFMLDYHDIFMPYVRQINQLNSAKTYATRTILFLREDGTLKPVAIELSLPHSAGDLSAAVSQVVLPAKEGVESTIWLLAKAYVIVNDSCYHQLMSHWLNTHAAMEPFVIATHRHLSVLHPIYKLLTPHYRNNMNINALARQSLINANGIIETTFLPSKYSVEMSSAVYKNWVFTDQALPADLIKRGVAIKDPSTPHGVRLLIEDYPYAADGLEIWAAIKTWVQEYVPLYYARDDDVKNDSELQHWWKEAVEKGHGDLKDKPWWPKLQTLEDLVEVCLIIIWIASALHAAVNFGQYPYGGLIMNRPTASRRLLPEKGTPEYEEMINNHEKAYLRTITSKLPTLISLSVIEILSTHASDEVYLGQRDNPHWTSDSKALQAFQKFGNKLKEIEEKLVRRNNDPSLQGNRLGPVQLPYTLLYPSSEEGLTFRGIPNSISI

eeAChE = eeAChE (Electrophorus electricus, UniProt O42275); experiment: AChE inhibition, modified Ellman's method; assay type: biochemical, Electrophorous electricus; conditions: for SI (IC50 eqBChE/IC50 eeAChE): selectivity index toward eeAChE
eeAChE, sequence (O42275 24-633): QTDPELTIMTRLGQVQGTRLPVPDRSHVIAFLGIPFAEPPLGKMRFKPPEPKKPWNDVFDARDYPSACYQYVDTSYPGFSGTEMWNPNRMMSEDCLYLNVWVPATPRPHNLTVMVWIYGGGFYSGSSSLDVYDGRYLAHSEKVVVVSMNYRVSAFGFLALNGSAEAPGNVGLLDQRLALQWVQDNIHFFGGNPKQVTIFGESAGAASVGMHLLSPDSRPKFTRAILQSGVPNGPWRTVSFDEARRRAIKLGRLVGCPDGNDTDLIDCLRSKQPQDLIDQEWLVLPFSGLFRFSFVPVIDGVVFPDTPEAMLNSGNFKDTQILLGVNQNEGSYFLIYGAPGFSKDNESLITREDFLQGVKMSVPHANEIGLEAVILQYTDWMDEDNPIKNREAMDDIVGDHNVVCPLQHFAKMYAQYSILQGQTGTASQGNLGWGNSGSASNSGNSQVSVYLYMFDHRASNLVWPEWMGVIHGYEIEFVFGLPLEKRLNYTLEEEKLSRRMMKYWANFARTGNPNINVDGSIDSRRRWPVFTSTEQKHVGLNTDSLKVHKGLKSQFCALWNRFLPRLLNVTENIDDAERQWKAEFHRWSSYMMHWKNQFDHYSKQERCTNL

[2] = tested on: neuroblastoma SH-SY5Y cells; experiment: MTT assay for neurotoxicity; assay type: cell-based; conditions: 1, 10, 20, 40 and 80 μM, incubation for 48 hours
[3] = In vivo acute toxicity study; conditions: doses ranging from 50 to 2000 mg kg^−1 body weight

eqBChE, sequence (P81908 whole entry): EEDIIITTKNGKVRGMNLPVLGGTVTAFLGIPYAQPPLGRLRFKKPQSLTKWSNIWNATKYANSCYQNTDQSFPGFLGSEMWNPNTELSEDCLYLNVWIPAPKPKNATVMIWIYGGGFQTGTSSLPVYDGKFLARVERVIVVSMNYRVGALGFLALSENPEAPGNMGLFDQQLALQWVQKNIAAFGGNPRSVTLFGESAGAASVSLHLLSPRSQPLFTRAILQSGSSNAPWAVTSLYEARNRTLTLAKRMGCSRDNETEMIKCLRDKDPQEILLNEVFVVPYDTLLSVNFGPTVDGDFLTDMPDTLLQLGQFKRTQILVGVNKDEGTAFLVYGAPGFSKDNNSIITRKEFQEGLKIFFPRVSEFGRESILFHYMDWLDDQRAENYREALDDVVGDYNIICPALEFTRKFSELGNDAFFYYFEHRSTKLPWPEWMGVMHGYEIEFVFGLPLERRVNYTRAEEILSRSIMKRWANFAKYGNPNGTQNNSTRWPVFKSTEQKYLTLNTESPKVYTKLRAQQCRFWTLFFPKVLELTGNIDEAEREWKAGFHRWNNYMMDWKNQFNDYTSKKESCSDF

Compound	Prediction (PAMPA-BBB) (CNS+, CNS−) [1]	IC50 (eqBChE) [µM]	IC50 (hMAO-A) [µM]	IC50 (hMAO-B) [µM]	SI (IC50 hMAO-A/IC50 hMAO-B) (hMAO-B)	IC50 (COX-2) [µM]	IC50 (5-LOX) [µM]	IC50 (eeAChE) [µM]	SI (IC50 eqBChE/IC50 eeAChE) (eeAChE)	Papp at 20 h [1] [×10⁻⁶ cm/s]	Neurotoxicity (cell viability, MTT) [2]	Acute toxicity outcome [3]	IC50 (eqBChE; read-out: IC50 (μM) ± SEM eqBChE) [µM]	Permeability (PAMPA-BBB) Pe(tested) ([1]; pH 7.4, 20 hours, room temperature)	IC50 (hMAO-A; read-out: IC50 (μM) ± SEM hMAO-A) [µM]	IC50 (hMAO-B; read-out: IC50 (μM) ± SEM hMAO-B) [µM]	IC50 (COX-2; read-out: IC50 (μM) ± SEM COX-2, NA = no activity found in tested concentration) [µM]	IC50 (5-LOX; read-out: IC50 (μM) ± SEM 5-LOX) [µM]	IC50 (eeAChE; read-out: IC50 (μM) ± SEM eeAChE) [µM]
Cc1nnc2n1-c1ccc(Cl)cc1C(c1ccccc1)=NC2 [Alprazolam, reference compound]	CNS+ (‘CNS+’ (prediction of high BBB permeation); Pe (10^−6 cm s^−1) > 4.39)																		
Sc1nnc(Cc2ccccc2Nc2c(Cl)cccc2Cl)n1-c1ccc(Cl)c(Cl)c1 [Compound 12, 5-(2-(2,6-dichlorophenylamino)benzyl)-4-(3,4 dichlorophenyl)-4H-1,2,4-triazole-3-thiol]		56.4 ± 1.28	11.3 ± 1.01	13.1 ± 1.22	0.8	0.69 ± 0.13	75.5 ± 1.57	2.58 ± 0.41	21.8										
NS(=O)(=O)c1ccc(NCSc2nnc(Cc3ccccc3Nc3c(Cl)cccc3Cl)n2-c2ccc(Cl)c(Cl)c2)cc1 [Compound 15, 4-((5-(2-(2,6-dichlorophenylamino)benzyl)-4-(3,4-dichlorophenyl)-4H-1,2,4-triazol-3-ylthio)methylamino)benzenesulfonamide]	CNS+ (‘CNS+’ (prediction of high BBB permeation); Pe (10^−6 cm s^−1) > 4.39)	2.99 ± 0.33	1.21 ± 0.07	0.89 ± 0.33	1.3	0.16 ± 0.04	3.42 ± 0.21	0.11 ± 0.01	27.2	6.36 ± 0.3	low neurotoxicity	all animals were found alive							
COc1ccc(C(=O)CC2CC(=O)N(CCCSc3nnc(Cc4ccccc4Nc4c(Cl)cccc4Cl)n3-c3ccc(Cl)c(Cl)c3)C2=O)cc1 (stereo not shown) [Compound 31, 1-(3-((4-(3,4-Dichlorophenyl)-5-(2-((2,6-dichlorophenyl)amino)benzyl)-4H-1,2,4-triazol-3-yl)thio)propyl)-3-(2-(4-methoxyphenyl)-2-oxoethyl)pyrrolidine-2,5-dione]		48.1 ± 1.51	4.63 ± 0.31	0.024 ± 0.001	193		51.3 ± 1.37	0.08 ± 0.01	601.2			all animals were found alive							
O=C(CC1CC(=O)N(CCCSc2nnc(Cc3ccccc3Nc3c(Cl)cccc3Cl)n2-c2ccc(Cl)c(Cl)c2)C1=O)c1ccccc1 (stereo not shown) [Compound 32, 1-(3-((4-(3,4-Dichlorophenyl)-5-(2-((2,6-dichlorophenyl)amino)benzyl)-4H-1,2,4-triazol-3-yl)thio)propyl)-3-(2-oxo-2-phenylethyl)pyrrolidine-2,5-dione]		3.39 ± 0.83	6.48 ± 0.39	0.106 ± 0.004	61.1		48.3 ± 1.42	0.39 ± 0.08	8.7										
NS(=O)(=O)c1ccc(N2N=C(c3ccc(NC(=O)Cc4ccccc4Nc4c(Cl)cccc4Cl)cc3)CC2c2ccc(Cl)cc2)cc1 (stereo not shown) [Compound 39, N-{4-[5-(4-chlorophenyl)-1-(4-sulfamoylphenyl)-4,5-dihydro-1H-pyrazol-3-yl]phenyl}-2-{2-[(2,6-dichlorophenyl)amino]phenyl}acetamide]	CNS+ (‘CNS+’ (prediction of high BBB permeation); Pe (10^−6 cm s^−1) > 4.39)	0.91 ± 0.16	0.61 ± 0.08	0.01 ± 0.001	61	0.6 ± 0.03	0.98 ± 0.01	0.03 ± 0.01	30.33	7.55 ± 0.14	no neurotoxicity	all animals were found alive							
CCn1cc(C(=O)O)c(=O)c2cc(F)c(N3CCNC(C)C3)c(F)c21 (stereo not shown) [Lomefloxacin, reference compound]	CNS− (‘CNS−’ (prediction of low BBB permeation); Pe (10^−6 cm s^−1) < 1.78)																		
N-(2-((5-(4-(4aH-Phenothiazin-10(10aH)-yl)butylthio)-4-(3,4-dichlorophenyl)-4H-1,2,4-triazol-3-yl)methyl)phenyl)-2,6-dichlorobenzenamine [Compound 33]	CNS+ (‘CNS+’ (prediction of high BBB permeation); Pe (10^−6 cm s^−1) > 4.39)				65.7				117.8		no neurotoxicity	all animals were found alive	5.89 ± 1	9.05 ± 0.20 10^−6 cm s^−1	8.55 ± 0.26	0.13 ± 0.01	23 ± 0.92	9.11 ± 0.08	0.05

Source: PMC9366597 (RSC Advances, 2022)
